Among the data in ChEMBL document CHEMBL2073910, “Molecular cloning and functional characterization of the mouse organic-anion-transporting polypeptide 1 (Oatp1) and mapping of the gene to chromosome X” (Biochem J, 2000) are Activity and Km values, retold here.

For series [1], the target named is T1, Solute carrier organic anion transporter family member 1A1 (Mus musculus, UniProt Q9QXZ6).
T1 sequence (Q9QXZ6 whole entry): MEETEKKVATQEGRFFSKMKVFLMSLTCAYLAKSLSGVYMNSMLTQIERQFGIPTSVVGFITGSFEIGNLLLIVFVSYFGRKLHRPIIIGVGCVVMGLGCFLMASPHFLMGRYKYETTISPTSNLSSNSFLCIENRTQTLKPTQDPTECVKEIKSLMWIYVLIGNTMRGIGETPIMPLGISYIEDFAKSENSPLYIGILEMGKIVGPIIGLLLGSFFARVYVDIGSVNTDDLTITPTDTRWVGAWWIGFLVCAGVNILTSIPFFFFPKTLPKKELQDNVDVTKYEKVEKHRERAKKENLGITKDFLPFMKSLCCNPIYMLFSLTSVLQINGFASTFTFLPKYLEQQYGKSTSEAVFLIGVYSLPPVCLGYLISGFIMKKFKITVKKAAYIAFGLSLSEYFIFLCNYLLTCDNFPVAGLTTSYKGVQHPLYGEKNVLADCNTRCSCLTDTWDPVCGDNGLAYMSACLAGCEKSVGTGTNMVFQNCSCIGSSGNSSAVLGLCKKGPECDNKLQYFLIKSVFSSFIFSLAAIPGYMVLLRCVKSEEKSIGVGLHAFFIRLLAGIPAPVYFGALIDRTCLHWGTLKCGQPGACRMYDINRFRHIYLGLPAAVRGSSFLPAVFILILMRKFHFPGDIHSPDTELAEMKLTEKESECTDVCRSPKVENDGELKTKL
Put plainly: (§1) TP_TRANSPORTER: uptake in Xenopus laevis oocytes. The class given is functional, cell-based. To be noted: oocyte.

Substrate in series [2]: C[C@]12CC[C@@H]3c4ccc(OS(=O)(=O)O)cc4CC[C@H]3[C@@H]1CCC2=O
The series is described as §1. Format: functional, cell-based, Oocyte.

Regarding `C[C@@H]1O[C@@H](O[C@H]2C[C@@H](O)[C@]3(CO)[C@H]4[C@H](O)C[C@]5(C)[C@@H](C6=CC(=O)OC6)CC[C@]5(O)[C@@H]4CC[C@]3(O)C2)[C@H](O)[C@H](O)[C@H]1O` [OUABAIN], the Activity result in series [1] is “substrate [+]”.
The same measure, in the same setting: as for GADOXETATE, the entry is “substrate [+]”.
On the same count and under the same terms, as for `O=C1OC(c2ccc(O)c(S(=O)(=O)[O-])c2)(c2ccc(O)c(S(=O)(=O)[O-])c2)c2c(Br)c(Br)c(Br)c(Br)c21.[Na+].[Na+]` [SULFOBROMOPHTHALEIN SODIUM], the entry is “substrate [+]”.

B1: Solute carrier organic anion transporter family member 1A1 (Mus musculus) (protein)
chain: T1 sequence (Q9QXZ6 whole entry)
For the molecule B1, the Km in series [2] was 5 µM.

One may read the Km as the concentration of substrate that gives half-maximal velocity.
